Laboratory results: patent US5476944A, “Derivatives of cyclic phenolic thioethers” (G. D. Searle & Co., priority 1994, dated 1995)
Read-outs that look alike come from different tables or passages of the source.

Key:
[1] = system: Human neutrophil superoxide generation; test: Human neutrophil superoxide generation, FMLP-induced; format: cell-based
Experimental: The compounds of the present invention are evaluated with respect to superoxide modulating activity according to the following assay procedure:
Human neutrophil superoxide generation:
Superoxide generation by formyl-methionyl-leucyl-phenylalanine (FMLP)-stimulated neutrophils was quantitated by the reduction of cytochrome C (Badwey, J. A., Curnutte, J. T. and Karnovsky, M. L., cis-Polyunsaturated fatty acids induce high levels of superoxide production by human neutrophils. J. BIOL. CHEM. 256: 12640-12643, 1981, which is incorporated herein by reference.) To 5 million neutrophils in 2.85 ml of Krebs-Ringer phosphate buffer, pH 7.2, 50 ul of inhibitor (in 10% DMSO/buffer), and 50 ul ferricytochrome C (5 mM, stock) were added and preincubated for 3 minutes at 37° C. Absorption measurements at 550 nm were recorded at start of preincubation. Fifty ul FMLP (6 uM, stock) was added to initiate reaction. A plateau was reached within 3 minutes and this reading minus the initial reading (before addition of FMLP) was used to calculate nanomoles of superoxide generated based on a molar extinction coefficient of 2.1×10^4 cm^-1 mole^-1.
Isolation of human neutrophils:
Human neutrophils were isolated from freshly drawn blood of healthy donors. […] The red cell lysing procedure was repeated, the cells suspended in appropriate buffer (depending on assay) and counted.

[2] = molecular target: T1, Sheep Seminal Vesicle Microsome Cyclooxygenase (Ovis aries, UniProt P05979); test: Inhibition of Sheep Seminal Vesicle Microsome Cyclooxygenase; format: biochemical
T1 construct: Lyophilized ovine microsome (approximately 1 mg) suspended in 2.9 ml Tris-HCl buffer; from tissue; host or cells: sheep seminal vesicle microsomes, lyophilized
T1 sequence (P05979 25-600): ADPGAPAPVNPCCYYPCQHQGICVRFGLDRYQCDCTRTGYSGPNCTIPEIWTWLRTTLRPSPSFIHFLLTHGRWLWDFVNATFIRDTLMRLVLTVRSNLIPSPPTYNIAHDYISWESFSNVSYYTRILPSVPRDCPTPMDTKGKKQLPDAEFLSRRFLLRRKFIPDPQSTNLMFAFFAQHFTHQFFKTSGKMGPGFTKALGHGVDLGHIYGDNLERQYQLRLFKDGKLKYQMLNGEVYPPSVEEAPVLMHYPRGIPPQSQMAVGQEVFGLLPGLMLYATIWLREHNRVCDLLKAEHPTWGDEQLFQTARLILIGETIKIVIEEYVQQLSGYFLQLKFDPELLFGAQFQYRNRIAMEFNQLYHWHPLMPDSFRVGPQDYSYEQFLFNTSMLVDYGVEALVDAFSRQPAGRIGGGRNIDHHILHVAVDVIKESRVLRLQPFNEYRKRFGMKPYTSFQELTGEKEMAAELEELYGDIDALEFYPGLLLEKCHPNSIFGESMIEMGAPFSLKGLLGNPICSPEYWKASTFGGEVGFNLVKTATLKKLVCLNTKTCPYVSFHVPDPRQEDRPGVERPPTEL
Experimental: The compounds of the present invention evaluated with respect to cyclooxygenase inhibition according to the following assay procedure. Inhibition of Sheep Seminal Vesicle Microsome Cyclooxygenase: This assay was based on oxygen consumption during conversion of arachidonic acid to prostaglandin G2 catalyzed by cyclooxygenase BIOCHEM. 11:3276-3285 (1972), which is incorporated herein by reference. Lyophilized ovine microsome (approximately 1 mg) suspended in 2.9 ml Tris-HCl buffer, pH 8.2, containing 0.7 mM phenol were used as source of arachidonate cyclooxygenase. The inhibitor, 50 μl in DMSO, was added and the mixture was preincubated for 5 minutes at 37° C. Fifty μl of arachidonic acid (final concentration 50 μM) was added to start the reaction. The slopes of the initial rates of oxygen uptake, in the presence and absence of inhibitor, were compared to determine reaction inhibition. Percent inhibition was computed using the following formula: [formula]

5-lipoxygenase = molecular target: T2, 5-lipoxygenase (Rattus norvegicus, UniProt P12527); test: Inhibition of 5-lipoxygenase, in vitro (5-HETE formation, RBL-1 homogenate supernatant); format: biochemical
T2 construct: The 100,000×g supernatant fraction of Rat Basophilic Leukemia Cell Homogenate (RBL-1); endogenous in cells; host or cells: RBL-1 (rat basophilic leukemia) cells, 100,000xg supernatant of homogenate
T2 sequence (P12527 1-673): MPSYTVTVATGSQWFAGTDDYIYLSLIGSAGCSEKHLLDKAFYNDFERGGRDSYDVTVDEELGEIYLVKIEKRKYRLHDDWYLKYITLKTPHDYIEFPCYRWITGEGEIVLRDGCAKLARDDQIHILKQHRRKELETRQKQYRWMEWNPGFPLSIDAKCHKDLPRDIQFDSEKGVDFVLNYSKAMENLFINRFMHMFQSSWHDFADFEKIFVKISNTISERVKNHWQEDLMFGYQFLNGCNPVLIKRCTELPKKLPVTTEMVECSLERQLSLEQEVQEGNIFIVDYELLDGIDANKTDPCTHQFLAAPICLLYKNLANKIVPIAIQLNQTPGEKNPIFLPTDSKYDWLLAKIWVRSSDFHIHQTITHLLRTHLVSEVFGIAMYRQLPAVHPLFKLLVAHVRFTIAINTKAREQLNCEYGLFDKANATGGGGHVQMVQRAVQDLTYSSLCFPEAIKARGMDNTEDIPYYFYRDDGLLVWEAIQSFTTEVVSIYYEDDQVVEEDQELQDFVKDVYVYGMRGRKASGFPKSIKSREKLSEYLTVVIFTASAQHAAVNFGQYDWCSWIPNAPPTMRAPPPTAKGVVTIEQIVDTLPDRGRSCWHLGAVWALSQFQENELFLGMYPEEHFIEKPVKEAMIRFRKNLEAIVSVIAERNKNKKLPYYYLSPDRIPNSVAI
Experimental: The compounds of the invention are evaluated with respect to 5-lipoxygenaseinhibition according to the following assay procedure.
Inhibition of 5-lipoxygenase, in vitro:
The 100,000×g supernatant fraction of Rat Basophilic Leukemia Cell Homogenate (RBL-1) serves as a 5-lipoxygenase enzyme source. The enzyme is incubated with [1-^4 C)-arachidonic acid and Ca++ in the presence and absence of test compound. The product of 5-lipoxygenase, 5-hydroxyeicosatetraenoic acid (5-HETE), is separated by thin-layer chromatography and measured by radioactivity. A compound inhibiting 5-HETE synthesis by 30% or more is considered active at that concentration.
For comparison the compound of Formula XX, a known 5-lipoxygenase inhibitor described in U.S. Pat. No. 4,755,524 was used: [drawing 29] (±)[2S*-[[3,5-bis(1,1-dimethylethyl)-4-hydroxyphenyl]thio]-1R*-methylpro poxy]acetic acid.

COX II enzyme = details: metabolite of nabumetone; cited from earlier work
[3] = insertion of the thio group; cited from earlier work
[4] = relative to histamine; cited from earlier work
[5] = in vivo; cited from earlier work

Compound: O=C(O)CS[C@@H]1CCCC[C@H]1Sc1ccccc1 (relative stereo) [Example 7, trans-[[2-(phenylthio)cyclohexyl]thio]acetic acid]
- superoxide generation (in words) [1]: did inhibit superoxide generation
- cyclooxygenase inhibition (in words) [2]: did not inhibit either 5-lipoxygenase or cyclooxygenase
- 5-lipoxygenase inhibition (in words) (5-lipoxygenase): did not inhibit either 5-lipoxygenase or cyclooxygenase

Compound: C[C@H](Sc1cc(C(C)(C)C)c(O)c(C(C)(C)C)c1)[C@@H](C)OCC(=O)O (relative stereo) [Formula XX, (±)[2S*-[[3,5-bis(1,1-dimethylethyl)-4-hydroxyphenyl]thio]-1R*-methylpropoxy]acetic acid, reference compound]
- superoxide generation (in words) [1]: inhibited both superoxide generation and 5-lipoxygenase
- 5-lipoxygenase inhibition (in words) (5-lipoxygenase): inhibited both superoxide generation and 5-lipoxygenase

Compound: COc1ccc2cc(CC(=O)O)ccc2c1 [6-methoxy-2-napthylacetic acid]
- selective inhibition of COX II (in words) (COX II enzyme): selectively inhibit the COX II enzyme

Compound: CC(C)(C)c1cc(SC2CCOC2=O)cc(C(C)(C)C)c1O (stereo not shown) [Compound 3]
- anti-inflammatory activity (in words) [3]: loss of anti-inflammatory activity

Compound: CCCCC/C=C\C\C=C/C=C/C=C/[C@@H](SC[C@H](NC(=O)CC[C@H](N)C(=O)O)C(=O)NCC(=O)O)[C@@H](O)CCCC(=O)O [LTC4]
- potency versus histamine in causing long lasting bronchoconstricting effects [4]: at least 100 times

Compound: CS(=O)(=O)Nc1ccc([N+](=O)[O-])cc1OC1CCCCC1 [N-(2-cyclohexyloxy-4-nitrophenyl)methanesulfonamide]
- anti-inflammatory activity (in words) [5]: anti-inflammatory
- gastric side effects (in words) [5]: lacks gastric side effects
